Laboratory results published in ChEMBL document CHEMBL1155925, “Synthesis and evaluation of acylguanidine FXa inhibitors” (Bioorg Med Chem Lett, 2008).
pIC50: −log10 of the molar value.

Key:
Coagulation factor X = Coagulation factor X (Homo sapiens, UniProt P00742); assay: Inhibition of human factor 10a
Plasma = assay: Anticoagulant activity in human plasma assessed as concentration required to double prothrombin-based clotting time; format: functional

Coagulation factor X, sequence (P00742 41-179 limits assumed): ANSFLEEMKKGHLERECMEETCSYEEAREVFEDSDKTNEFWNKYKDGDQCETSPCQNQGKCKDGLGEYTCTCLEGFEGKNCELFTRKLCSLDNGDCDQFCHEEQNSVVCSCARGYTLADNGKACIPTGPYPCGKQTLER
Coagulation factor X, sequence (P00742 235-488 limits assumed): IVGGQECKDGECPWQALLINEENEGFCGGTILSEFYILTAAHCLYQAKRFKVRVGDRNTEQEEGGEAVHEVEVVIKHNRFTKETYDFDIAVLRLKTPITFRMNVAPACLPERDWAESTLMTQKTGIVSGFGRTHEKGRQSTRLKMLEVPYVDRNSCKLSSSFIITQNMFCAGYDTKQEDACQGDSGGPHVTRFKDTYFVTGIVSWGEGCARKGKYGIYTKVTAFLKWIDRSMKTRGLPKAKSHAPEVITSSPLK

Row | Structure (SMILES) | pIC50 (Coagulation factor X) | Activity (Plasma) [µM]
1 | COc1ccc(N/C(=N\C(=O)C2CCN(C(=O)c3ccccc3)CC2)N[C@H]2CCCCN(CC(=O)N3CCCC3)C2=O)cc1 | 6.30 | 48
2 | Cc1cc2cc(N/C(=N\C(=O)C3CCN(C(=O)c4ccccc4)CC3)N[C@H]3CCCCN(CC(=O)N4CCCC4)C3=O)ccc2o1 | 8.00 | 7.5
3 | Cc1cc2cc(N/C(=N\C(=O)c3sc(C)nc3C)N[C@H]3CCCCN(CC(=O)N4CCCC4)C3=O)ccc2o1 | 7.77 | 42
4 | COc1ccc(NC(=N[C@H]2CCCCN(CC(=O)N3CCCC3)C2=O)NC(=O)c2ccc(N(C)C)cc2)cc1 | 6.39 | 
5 | COc1ccc(NC(=N[C@H]2CCCCN(CC(=O)N3CCCC3)C2=O)NC(=O)c2cc(OC)cc(OC)c2)cc1 | 6.06 | 
6 | Cc1cc2cc(N/C(=N\C(=O)c3ccccc3)N[C@H]3CCCCN(CC(=O)N4CCCC4)C3=O)ccc2o1 |  | 48
7 | COc1ccc(NC(=N[C@H]2CCCCN(CC(=O)N3CCCC3)C2=O)NC(=O)c2ccc(F)c(F)c2)cc1 | 6.57 | 
8 | COc1ccc(NC(=N[C@H]2CCCCN(CC(=O)N3CCCC3)C2=O)NC(=O)c2ccc(Cl)cc2)cc1 | 6.53 | 
9 | COc1ccc(NC(=N[C@H]2CCCCN(CC(=O)N3CCCC3)C2=O)NC(=O)c2cc(Cl)cc(Cl)c2)cc1 | 6.26 | 
10 | COc1ccc(NC(=N[C@H]2CCCCN(CC(=O)N3CCCC3)C2=O)NC(=O)c2ccccc2)cc1 | 6.61 | 
11 | COc1ccc(NC(=N[C@H]2CCCCN(CC(=O)N3CCCC3)C2=O)NC(=O)c2cccc(Cl)c2)cc1 | 6.57 | 
12 | COc1ccc(C(=O)NC(=N[C@H]2CCCCN(CC(=O)N3CCCC3)C2=O)Nc2cccc(C)c2)cc1OC | 6.40 | 
13 | Cc1cccc(NC(=N[C@H]2CCCCN(CC(=O)N3CCCC3)C2=O)NC(=O)c2ccccc2)c1 | 6.61 | 
14 | COc1cccc(C(=O)NC(=N[C@H]2CCCCN(CC(=O)N3CCCC3)C2=O)Nc2cccc(C)c2)c1 | 6.56 | 
15 | Cc1cc2cc(N/C(=N\C(=O)c3ccno3)N[C@H]3CCCCN(CC(=O)N4CCCC4)C3=O)ccc2o1 | 7.85 | 17.7
16 | Cc1cccc(N/C(=N\C(=O)C2CCN(C(=O)c3ccccc3)CC2)N[C@H]2CCCCN(CC(=O)N3CCCC3)C2=O)c1 | 5.97 | >50
17 | COc1ccc(N/C(=N\C(=O)c2sc(C)nc2C)N[C@H]2CCCCN(CC(=O)N3CCCC3)C2=O)cc1 | 6.41 | >50
18 | Cc1cccc(NC(=N[C@H]2CCCCN(CC(=O)N3CCCC3)C2=O)NC(=O)c2cc(Cl)cc(Cl)c2)c1 | 6.08 | 
19 | COc1ccc(NC(=N[C@H]2CCCCN(CC(=O)N3CCCC3)C2=O)NC(=O)c2cc(F)cc(F)c2)cc1 | 6.68 | 
20 | COc1ccc(N/C(=N\C(=O)c2ccno2)N[C@H]2CCCCN(CC(=O)N3CCCC3)C2=O)cc1 | 6.42 | 45
21 | Cc1cccc(NC(=N[C@H]2CCCCN(CC(=O)N3CCCC3)C2=O)NC(=O)c2cccc(Cl)c2)c1 | 6.43 | 
22 | COc1ccc(NC(=N[C@H]2CCCCN(CC(=O)N3CCCC3)C2=O)NC(=O)c2cccc(F)c2)cc1 | 6.59 | 
23 | Cc1cccc(NC(=N[C@H]2CCCCN(CC(=O)N3CCCC3)C2=O)NC(=O)c2cc(F)cc(F)c2)c1 | 6.40 | 
24 | COc1ccc(N/C(=N\C(=O)c2ccc(OC)c(OC)c2)N[C@H]2CCCCN(CC(=O)N3CCCC3)C2=O)cc1 | 6.31 | 

Continued, in another order:

Row | pIC50 (Coagulation factor X) | Structure (SMILES) | Activity (Plasma) [µM]
25 | 6.34 | Cc1cccc(N/C(=N\C(=O)c2sc(C)nc2C)N[C@H]2CCCCN(CC(=O)N3CCCC3)C2=O)c1 | >50
26 | 6.71 | COc1ccc(N/C(=N\C(=O)c2cccc(OC)c2)N[C@H]2CCCCN(CC(=O)N3CCCC3)C2=O)cc1 | 
27 | 6.43 | Cc1cccc(NC(=N[C@H]2CCCCN(CC(=O)N3CCCC3)C2=O)NC(=O)c2cccc(F)c2)c1 | 
28 | 6.65 | Cc1cccc(N/C(=N\C(=O)c2ccc(F)cc2)N[C@H]2CCCCN(CC(=O)N3CCCC3)C2=O)c1 | 
29 | 6.29 | Cc1cccc(NC(=N[C@H]2CCCCN(CC(=O)N3CCCC3)C2=O)NC(=O)c2ccc(N(C)C)cc2)c1 | 
30 | 6.57 | Cc1cccc(NC(=N[C@H]2CCCCN(CC(=O)N3CCCC3)C2=O)NC(=O)c2ccc(F)c(F)c2)c1 | 
31 | 6.20 | Cc1cccc(N/C(=N\C(=O)c2ccno2)N[C@H]2CCCCN(CC(=O)N3CCCC3)C2=O)c1 | 50
32 | 6.70 | Cc1cccc(N/C(=N\C(=O)c2ccc(Cl)cc2)N[C@H]2CCCCN(CC(=O)N3CCCC3)C2=O)c1 | 
33 | 5.94 | COc1cc(OC)cc(C(=O)/N=C(\Nc2cccc(C)c2)N[C@H]2CCCCN(CC(=O)N3CCCC3)C2=O)c1 | 
34 | 6.64 | COc1ccc(N/C(=N\C(=O)c2ccc(OC)cc2)N[C@H]2CCCCN(CC(=O)N3CCCC3)C2=O)cc1 | 
35 | 6.15 | COc1ccc(C(=O)NC(=N[C@H]2CCCCN(CC(=O)N3CCCC3)C2=O)Nc2cccc(C)c2)cc1 | 
36 | 6.43 | COc1ccc(N/C(=N\C(=O)c2ccc(F)cc2)N[C@H]2CCCCN(CC(=O)N3CCCC3)C2=O)cc1 | 
